The record followed here is US6767741B1, “Metal binding compounds and their use in cell culture medium compositions” (Invitrogen Corporation, priority 1999, dated 2004).

Each structure is given as a SMILES string.

Experiment [1] relates to 293 cells. The experiment in a line: Growth of 293 cells in transferrin-free 293 SFM with metal binding compounds. Format: cell-based. The settings on record: third passage. On the procedure:
Semi-confluent adherent cultures of 293 Cells (ATCC, CRL 1573) are readily adapted to suspension culture. The cells are first detached with a solution of Trypsin-EDTA (0.05% Trypsin, 0.53 mM Na4EDTA), and then resuspended in conventional medium supplemented with 10% FBS to inhibit the trypsin. The resuspended cells are centrifuged at 200×g for five minutes. The cell pellet is resuspended in 293 SFM (available from Life Technologies, Rockville, Md.) the formulation of which is described in WO 98/08934 which is specifically incorporated herein by reference. Alternatively, the cells may be detached with Versene (Na4EDTA, 0.53 mM) and resuspended in 293 SFM.
The initial seeding density of the 293 cells after conversion to suspension culture is 1×10^6 cells/mL. The cells are shaken on a rotary shaker at 150 rpm in a 37° C. incubator equilibrated with 8% CO2-92% air. When the cells reach a density of 1.5×10^6 cells/mL they are diluted with 293 SFM to a density of 3.0×10^5 cells/mL. Because 293 cells have a tendency to aggregate, the cells may be vortexed vigorously for approximately 45 seconds to obtain a predominantly single cell suspension at the time of passaging and counting. After several passages in suspension culture, the maximum achievable density may be determined.
The ability of metal binding compounds to support cellular growth was evaluated using 293 cells maintained in 293 SFM (Life Technologies, Rockville, Md.) without transferrin or metal binding compound. Stock cultures containing 5 μg/mL human holo-transferrin were prepared in 293 SFM. For metal binding compound evaluation, 293 cells were established in 125 mL shaker flasks at an initial viable seeding density of 2×10^5 cells/mL in a final volume of 20 mL. All cultures were maintained at 37° C. in humidified air containing 8% CO2. To eliminate transferrin carry-over effects, cells were subcultured at 4 day intervals for a total of three passages. At each subculturing, cells were seeded at a density of 2×10^5 cells/mL. Positive control cultures contained 5 μg/mL human holo-transferrin while negative control cultures were established in the absence of either transferrin or metal binding compound. Metal binding compound stocks were prepared at 0.1M-0.2M in ddH2O and solubilized when necessary using 5N NaOH or HCl. Iron complexes were established using 0.2M metal binding compound and iron stocks mixed 1:1 (v/v) and incubated for 5-10 minutes at 22° C. All solutions containing metal binding compounds were filter sterilized using a 0.22 μm Millex-GV filter prior to addition to transferrin and serum-free media.
In most cases, metal binding compounds were evaluated either alone or in combination with ferric chloride or ferrous sulfate at 25 μM, 50 μM and 100 μM. When used in combination, the metal binding compounds were used in equimolar concentration with iron ions. Values in the table represent the mean percentage of control growth for duplicate cultures determined at the third passage.
(§1) When added to the medium formulation un-complexed, the metal binding compound is listed alone, when added as a complex with a transition metal, the source of the transition metal is listed with the metal binding compound.

The test system of experiment [2] is Sp2/0 cells. Nature of the experiment: Growth of Sp2/0 cells in transferrin-free CD Hybridoma medium with metal binding compounds. Format: cell-based. The settings on record: third passage. The procedure: The ability of iron metal binding compounds to support cellular growth in the absence of transferrin was evaluated using Sp2/0 cells maintained in CD Hybridoma medium (Life Technologies, Rockville, Md.). Stock cultures containing 5 μg/mL human holo-transferrin were prepared in CD Hybridoma medium. For metal binding compound evaluation, Sp2/0 cells were established at an initial viable cell density of 0.5×10^5 cells/mL in stationary culture using 75 cm^2 tissue culture flasks in a final volume of 20 mL. All cultures were maintained at 37° C. in humidified air containing 8% CO2. To eliminate transferrin carry-over effects, cells were subcultured at the same seeding density at 4 day intervals for a total of three passages. Positive control cultures contained 5 μg/mL human holotransferrin while negative control cultures were established in the absence of either transferrin or metal binding compound. Metal binding compound stocks were prepared at 0.1M-0.2M in ddH2O and solubilized when necessary using 5N NaOH or HCl. Iron complexes were established using 0.2M metal binding compound and iron stocks mixed 1:1 (v/v) and incubated for 5-10 minutes at 22° C. All solutions containing metal binding compounds were filter sterilized using a 0.22 μm Millex-GV filter prior to addition to transferrin and serum-free media.
In most cases, metal binding compounds were evaluated either alone or in combination with ferric chloride or ferrous sulfate at 25 μM, 50 μM and 100 μM. Values in the table represent the mean percentage of control growth for duplicate cultures determined at the third passage.
as §1

The mark [3] stands for this setting: 25 μM, control = 5 μg/mL human holo-transferrin, duplicate cultures.
Setting [4] is: 50 μM, control = 5 μg/mL human holo-transferrin, duplicate cultures.
The mark [5] stands for this setting: 100 μM, control = 5 μg/mL human holo-transferrin, duplicate cultures.

Regarding `O=C(O)c1cccnc1O.[Cl][Fe]([Cl])[Cl]` [2-Hydroxynicotinic Acid · Ferric Chloride], the “mean percentage of control growth” value in experiment [1] (100 μM (row note: 293 tested at 100, 150, 200 μM; first column)) is 0%; in experiment [1] (150 μM (row note: 293 tested at 100, 150, 200 μM; second column)), 0%; in experiment [1] (200 μM (row note: 293 tested at 100, 150, 200 μM; third column)), 99%; in experiment [2] (setting [3]) it was 64%; in experiment [2] (setting [4]), 82%; in experiment [2] (setting [5]), 85%.

Regarding `Cc1occc(=O)c1O` [3-Hydroxy-2-Methyl-4-Pyrone (Maltol), 3-Hydroxy-2-Methyl-4-Pyrone], the “mean percentage of control growth” value in experiment [1] (setting [3]) worked out at 0%; in experiment [1] (setting [4]), 28%; in experiment [1] (setting [5]), 81%; in experiment [2] (setting [3]) it was 0%; in experiment [2] (setting [4]), 0%; in experiment [2] (setting [5]) it was 0%.

For the compound `Cc1occc(=O)c1O.[Cl][Fe]([Cl])[Cl]` [3-Hydroxy-2-Methyl-4-Pyrone · Ferric Chloride], the results for the “mean percentage of control growth” value in experiment [2] (setting [3]), in experiment [2] (setting [4]) and in experiment [2] (setting [5]) were 60%, 71% and 75%, respectively.

Regarding `O=[N+]([O-])c1ncccc1O.[Cl][Fe]([Cl])[Cl]` [3-Hydroxy-2-Nitropyridine · Ferric Chloride], the “mean percentage of control growth” value was found to be 52% in experiment [2] (setting [3]), 62% in experiment [2] (setting [4]) and 72% in experiment [2] (setting [5]).

`CC(=O)NO.[Cl][Fe]([Cl])[Cl]` [Acetohydroxamic Acid · Ferric Chloride]: the “mean percentage of control growth” value in experiment [1] (setting [3]) is reported as 83%; in experiment [1] (setting [4]), 22%; in experiment [1] (setting [5]), 0%; in experiment [2] (5 μM, control = holo-transferrin), 40%; in experiment [2] (10 μM, control = holo-transferrin), 48%; in experiment [2] (20 μM, control = holo-transferrin) it was 47%.

As to `NC(=O)CC(N)C(=O)O.[Cl][Fe]([Cl])[Cl]` (stereo not drawn) [Asparagine · Ferric Chloride], the “mean percentage of control growth” value in experiment [2] (setting [3]) was 36%; in experiment [2] (setting [4]) it was 51%; in experiment [2] (setting [5]), 54%.

As to `NCC(=O)O.[Cl][Fe]([Cl])[Cl]` [Glycine · Ferric Chloride], the “mean percentage of control growth” value in experiment [1] (setting [3]) is recorded as 81%; in experiment [1] (setting [4]), 71%; in experiment [1] (setting [5]), 72%; in experiment [2] (setting [3]), 34%; in experiment [2] (setting [4]), 61%; in experiment [2] (setting [5]), 56%.

With `C1COCCN1.[Cl][Fe]([Cl])[Cl]` [Morpholine · Ferric Chloride], the “mean percentage of control growth” value in experiment [2] (setting [3]) was 54%; in experiment [2] (setting [4]), 64%; in experiment [2] (setting [5]), 81%.

Consider `O=C(O)CN(CC(=O)O)CC(=O)O` [Nitriloacetic Acid], for which the “mean percentage of control growth” value in experiment [2] (setting [3]), in experiment [2] (setting [4]) and in experiment [2] (setting [5]) was 0% in each case.
